Data from patent US6573246B1, “Modified ether glyceroglycolipids” (The Liposome Company, Inc., priority 1995, dated 2003).
Read-outs that look alike come from different tables or passages of the source. Values belong to the compound of their own block, whether it stands above or below them.

Key:
[1] = test system: MCF-7 (breast adenocarcinoma) cells; experiment: growth inhibition of MCF-7 cells in culture; type: cell-based, human
Procedure: (§1) Human epithelial cancer cell lines were grown from frozen stocks originally obtained from the ATCC, in media commonly used for growing these cells in culture. For example, A549 cells (non-small cell lung adenocarcinoma) were cultured in Ham's F-12 medium, T84 cells (colon carcinoma) were cultured in a 1:1 mixture of F-12 and DMEM while MCF-7 (breast adenocarcinoma) and A427 (large cell lung carcinoma) cells were cultured in DMEM. The media were supplemented with 10% fetal bovine serum, penicillin (50 U/ml), streptomycin (50 micogram/ml) and fungizone (0.5 microgram/ml). OVCAR-3 cells (ovarian adenocarcinoma) were cultured in RPMI 1640 medium supplemented with 20% FBS and 10 microgram/ml insulin.
(§2) Cells were subcultured into 24-well plates and the cell number was monitored daily. When the cells were in log phase, the media was replaced with one containing the required drug concentration, and the cells were incubated for 72 h. The increase in cell numbers relative to control wells (without any drug) was determined after the incubation. Stock solutions of the drugs ([…]) were prepared in ethanol and stored at −20 deg. C. Etherlipid solutions (30 micromolar) in the appropriate media were prepared fresh on the day of the experiment and serially diluted to give the required concentrations. The final concentration of ethanol in all wells was 0.1% (v/v).
(§3) Gl50 values are given as the mean ± standard deviation; the Gl50 value from each experiment “n” was generated from three individual wells on two separate plates (six total wells); n=1 for compounds 3-6; n=2 for most cell lines treated with compound 2 ^an=3; ^bn=2; ^cn=6; ^dn=8.

[2] = test system: T84 cells (colon carcinoma); experiment: growth inhibition of T84 cells in culture; type: cell-based, human; conditions: 72 h
Procedure: as §1, §2

[3] = test system: A549 cells (non-small cell lung adenocarcinoma); experiment: growth inhibition of A549 cells in culture; type: cell-based, human
Procedure: as §1, §2, §3

[4] = test system: A427 (large cell lung carcinoma) cells; experiment: growth inhibition of A427 cells in culture; type: cell-based, human; conditions: 72 h
Procedure: as §1, §2

[5] = test system: OVCAR-3 cells (ovarian adenocarcinoma); experiment: growth inhibition of OVCAR-3 cells in culture; type: cell-based, human; conditions: for growth: increase in cell numbers relative to control wells (control = 100): OVCAR-3, 72 h; for IC50: OVCAR-3 ovarian cancer cell line, read-out: Gl50 (the source's name)
Procedure: as §1, §2

[6] = test system: MCF-7/Adr (adriamycin-resistant) cells; experiment: growth inhibition of MCF7/adr cells in culture; type: cell-based, human; conditions: mean ± standard deviation, read-out: Gl50 (concentration of lipid required to inhibit the growth of fifty percent of the cells in culture)
Procedure: (§4) The Gl50 values for edelfosine (1), 2′-deoxy-β-D-arabinopyranosyl (2), 2′-deoxy-α-D-arabinopyranosyl (3), 2-O-methyl-β-D-glucopyranosyl (4), 2′-O-methyl-β-D-mannopyranosyl (5) and α-D-mannopyransoyl (6) on A-549, MCF-7, Lewis Lung, MCF-7/Adr (adriamycin-resistant), P388, P-388/Adr, L1210 and L1210/vmdr cells were determined and are set forth below (see Table 4) as the concentration (micromolar) of lipid required to inhibit the growth of fifty percent of the cells in culture.
as §3

HT29 cells = experiment: growth inhibition of HT29 cells in culture; type: cell-based; conditions: mean ± standard deviation, read-out: Gl50 (concentration of lipid required to inhibit the growth of fifty percent of the cells in culture)
L1210 cells = experiment: growth inhibition of L1210 cells in culture; type: cell-based; conditions: mean ± standard deviation, read-out: Gl50 (concentration of lipid required to inhibit the growth of fifty percent of the cells in culture)
Procedure: as §4, §3

L1210/vmdr cells = experiment: growth inhibition of L1210/vmdr cells in culture; type: cell-based; conditions: mean ± standard deviation, read-out: Gl50 (concentration of lipid required to inhibit the growth of fifty percent of the cells in culture)
Procedure: as §4, §3

[7] = 10% FBS-supplemented medium, read-out: Gl50 (concentration that inhibited cell growth by 50% in comparison to control cultures)
[8] = MCF7, mean ± standard deviation, read-out: Gl50 (concentration of lipid required to inhibit the growth of fifty percent of the cells in culture)
[9] = mean ± standard deviation, read-out: Gl50 (concentration of lipid required to inhibit the growth of fifty percent of the cells in culture)

- IC50 ([1]; MCF-7, 72 h, 10% FBS-supplemented medium, read-out: Gl50 (concentration that inhibited cell growth by 50% in comparison to control cultures)): 17 µM
- IC50 [2, 7]: > 30 µM
- IC50 ([3]; 72 h, 10% FBS-supplemented medium, read-out: Gl50 (concentration that inhibited cell growth by 50% in comparison to control cultures)): 9 µM
- IC50 [4, 7]: 24.5 µM
- IC50 [5]: 4 µM
Structure (SMILES): CCCCCCCCCCCCCCCCOC[C@H](CO[C@@H]1O[C@H](CO)[C@@H](O)[C@H](O)[C@H]1NC(C)=O)OC [B, 1-O-hexadecyl-2-O-methyl-3-O-(2′-acetamido-2′-deoxy-β-D-glucopyranosyl)-sn-glycerol]
- proliferation: increase in cell numbers relative to control wells (control = 100) ([1]; MCF-7, lipid concentration 5 μM, 72 h): 81 ± 8
- proliferation: increase in cell numbers relative to control wells (control = 100) ([1]; MCF-7, lipid concentration 10 μM, 72 h): 71 ± 6
- proliferation: increase in cell numbers relative to control wells (control = 100) ([1]; MCF-7, lipid concentration 15 μM, 72 h): 58 ± 5
- proliferation: increase in cell numbers relative to control wells (control = 100) ([1]; MCF-7, lipid concentration 20 μM, 72 h): 38 ± 2
- proliferation: increase in cell numbers relative to control wells (control = 100) ([1]; MCF-7, lipid concentration 30 μM, 72 h): 6 ± 3
- proliferation: increase in cell numbers relative to control wells (control = 100) ([2]; lipid concentration 5 μM): 96 ± 10
- proliferation: increase in cell numbers relative to control wells (control = 100) ([2]; lipid concentration 10 μM): 79 ± 12
- proliferation: increase in cell numbers relative to control wells (control = 100) ([2]; lipid concentration 15 μM): 77 ± 13
- proliferation: increase in cell numbers relative to control wells (control = 100) ([2]; lipid concentration 20 μM): 79 ± 16
- proliferation: increase in cell numbers relative to control wells (control = 100) ([2]; lipid concentration 30 μM): 61 ± 13
- proliferation: increase in cell numbers relative to control wells (control = 100) ([3]; lipid concentration 5 μM, 72 h): 91 ± 9
- proliferation: increase in cell numbers relative to control wells (control = 100) ([3]; lipid concentration 10 μM, 72 h): 45 ± 3
- proliferation: increase in cell numbers relative to control wells (control = 100) ([3]; lipid concentration 15 μM, 72 h): 15 ± 2
- proliferation: increase in cell numbers relative to control wells (control = 100) ([3]; lipid concentration 20 μM, 72 h): 0
- proliferation: increase in cell numbers relative to control wells (control = 100) ([3]; lipid concentration 30 μM, 72 h): 0
- proliferation: increase in cell numbers relative to control wells (control = 100) ([4]; lipid concentration 5 μM): 93 ± 12
- proliferation: increase in cell numbers relative to control wells (control = 100) ([4]; lipid concentration 10 μM): 92 ± 6
- proliferation: increase in cell numbers relative to control wells (control = 100) ([4]; lipid concentration 15 μM): 86 ± 10
- proliferation: increase in cell numbers relative to control wells (control = 100) ([4]; lipid concentration 20 μM): 71 ± 8
- proliferation: increase in cell numbers relative to control wells (control = 100) ([4]; lipid concentration 30 μM): 24 ± 4
- growth: increase in cell numbers relative to control wells (control = 100) ([5]; lipid concentration 5 μM): 68.8 ± 5.8
- growth: increase in cell numbers relative to control wells (control = 100) ([5]; lipid concentration 10 μM): 52.9 ± 3.9
- growth: increase in cell numbers relative to control wells (control = 100) ([5]; lipid concentration 15 μM): 34.6 ± 7.3
- growth: increase in cell numbers relative to control wells (control = 100) ([5]; lipid concentration 20 μM): 26.0 ± 10.9
- growth: increase in cell numbers relative to control wells (control = 100) ([5]; lipid concentration 30 μM): 4.7 ± 4.8

- IC50 [1, 8]: 24.4 ± 0.64 µM
- IC50 [3, 9]: 19.65 ± 0.07 µM
- IC50 [6]: 24.4 ± 0.42 µM
- IC50 (HT29 cells): 29.6 ± 0.28 µM
- IC50 (L1210 cells): 18.8 ± 0.49 µM
- IC50 (L1210/vmdr cells): 26.9 ± 1.06 µM
Structure (SMILES): CCCCCCCCCCCCCCCCOC[C@H](CO[C@@H]1C[C@H](O)[C@H](O)CO1)OC [compound 3, 1-O-Hexadecyl-2-O-methyl-3-O-(2′-deoxy-α-D-arabinopyransoyl)-sn-glycerol]

- IC50 [1, 8]: 21.7 ± 0.57 µM
- IC50 [3, 9]: 18.1 ± 0.14 µM
- IC50 [6]: 23.3 ± 0.71 µM
- IC50 (HT29 cells): 23.2 ± 0.85 µM
- IC50 (L1210 cells): 16.2 ± 0.99 µM
- IC50 (L1210/vmdr cells): 18.9 µM
Structure (SMILES): CCCCCCCCCCCCCCCCOC[C@H](CO[C@H]1O[C@H](CO)[C@@H](O)[C@H](O)[C@@H]1O)OC [compound 6, 1-O-Hexadecyl-2-O-methyl-3-O-(α-D-mannopyransoyl)-sn-glycerol]

- IC50 ([5]; Homo sapiens): > 30 µM
Structure (SMILES): CCCCCCCCCCCCCCCCOP(=O)([O-])OCC[N+](C)(C)C [D, hexadecylphosphocholine]
- growth: increase in cell numbers relative to control wells (control = 100) ([5]; lipid concentration 5 μM): 93.8 ± 16.5
- growth: increase in cell numbers relative to control wells (control = 100) ([5]; lipid concentration 10 μM): 90.3 ± 11.3
- growth: increase in cell numbers relative to control wells (control = 100) ([5]; lipid concentration 15 μM): 67.4 ± 14.5
- growth: increase in cell numbers relative to control wells (control = 100) ([5]; lipid concentration 20 μM): 62.3 ± 10.7
- growth: increase in cell numbers relative to control wells (control = 100) ([5]; lipid concentration 30 μM): 67.2 ± 12.5
